Assay results reported in ChEMBL document CHEMBL1201862, “PubChem BioAssay data set” (2004).
One block for each compound: values may come before it. Active and inactive are the calls of the source.

Tests used:
[1] = molecular target: T1, Sentrin-specific protease 1 (Homo sapiens, UniProt Q9P0U3); assay: SENP1 catalytic domain blockers, concentration series – biochemical, kinetic FRET, dose response (AID 651697); type: functional; conditions: read-out: IC50_Mean
T1 sequence (Q9P0U3 whole entry): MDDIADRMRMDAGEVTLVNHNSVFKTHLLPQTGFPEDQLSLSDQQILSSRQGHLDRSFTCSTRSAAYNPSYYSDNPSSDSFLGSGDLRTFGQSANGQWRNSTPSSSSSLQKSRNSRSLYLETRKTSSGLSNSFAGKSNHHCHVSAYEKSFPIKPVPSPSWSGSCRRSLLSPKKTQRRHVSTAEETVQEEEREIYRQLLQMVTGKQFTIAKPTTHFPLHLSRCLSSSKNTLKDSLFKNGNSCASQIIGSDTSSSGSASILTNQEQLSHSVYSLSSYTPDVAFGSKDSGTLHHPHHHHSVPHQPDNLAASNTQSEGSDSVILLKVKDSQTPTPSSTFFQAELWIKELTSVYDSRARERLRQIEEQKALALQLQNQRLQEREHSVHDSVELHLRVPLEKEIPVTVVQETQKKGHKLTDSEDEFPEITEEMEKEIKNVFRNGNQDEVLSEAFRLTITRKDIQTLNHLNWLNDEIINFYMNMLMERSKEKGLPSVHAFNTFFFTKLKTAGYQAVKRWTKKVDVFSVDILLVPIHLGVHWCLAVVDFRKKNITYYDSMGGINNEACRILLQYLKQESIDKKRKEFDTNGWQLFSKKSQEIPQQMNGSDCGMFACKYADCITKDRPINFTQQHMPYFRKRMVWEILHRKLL

[2] = molecular target: T1, Sentrin-specific protease 1; assay: Dose response confirmation of small molecule inhibitors of the catalytic domain of the SUMO protease, SENP1 in a FRET assay.; type: functional; conditions: read-out: IC50_Mean
[3] = Counterscreen for IDE inhibitors: Luminescence-based cell-based high throughput dose response assay to identify compounds that are cytotoxic to HEK cells. [Related pubchem assays: 434962 (Primary screen (IDE inhibitors in singlicate)), 449730 (Counterscreen (Cytotoxicity in triplicate)), 435028 (Confirmation (IDE inhibitors in triplicate)) …; type: functional; conditions: HEK293
[4] = molecular target: T2, Insulin-degrading enzyme (Homo sapiens, UniProt P14735); assay: Dose Response: Fluorescence polarization-based cell-based high throughput dose response assay for inhibitors of insulin-degrading enzyme (IDE). [Related pubchem assays: 434962 (Primary screen (IDE inhibitors in singlicate)), 449730 (Counterscreen (Cytotoxicity in triplicate)), 435028 (Confirmation (IDE inhibitors in triplicate)), 434984 (Summary …; type: functional
T2 sequence (P14735 whole entry): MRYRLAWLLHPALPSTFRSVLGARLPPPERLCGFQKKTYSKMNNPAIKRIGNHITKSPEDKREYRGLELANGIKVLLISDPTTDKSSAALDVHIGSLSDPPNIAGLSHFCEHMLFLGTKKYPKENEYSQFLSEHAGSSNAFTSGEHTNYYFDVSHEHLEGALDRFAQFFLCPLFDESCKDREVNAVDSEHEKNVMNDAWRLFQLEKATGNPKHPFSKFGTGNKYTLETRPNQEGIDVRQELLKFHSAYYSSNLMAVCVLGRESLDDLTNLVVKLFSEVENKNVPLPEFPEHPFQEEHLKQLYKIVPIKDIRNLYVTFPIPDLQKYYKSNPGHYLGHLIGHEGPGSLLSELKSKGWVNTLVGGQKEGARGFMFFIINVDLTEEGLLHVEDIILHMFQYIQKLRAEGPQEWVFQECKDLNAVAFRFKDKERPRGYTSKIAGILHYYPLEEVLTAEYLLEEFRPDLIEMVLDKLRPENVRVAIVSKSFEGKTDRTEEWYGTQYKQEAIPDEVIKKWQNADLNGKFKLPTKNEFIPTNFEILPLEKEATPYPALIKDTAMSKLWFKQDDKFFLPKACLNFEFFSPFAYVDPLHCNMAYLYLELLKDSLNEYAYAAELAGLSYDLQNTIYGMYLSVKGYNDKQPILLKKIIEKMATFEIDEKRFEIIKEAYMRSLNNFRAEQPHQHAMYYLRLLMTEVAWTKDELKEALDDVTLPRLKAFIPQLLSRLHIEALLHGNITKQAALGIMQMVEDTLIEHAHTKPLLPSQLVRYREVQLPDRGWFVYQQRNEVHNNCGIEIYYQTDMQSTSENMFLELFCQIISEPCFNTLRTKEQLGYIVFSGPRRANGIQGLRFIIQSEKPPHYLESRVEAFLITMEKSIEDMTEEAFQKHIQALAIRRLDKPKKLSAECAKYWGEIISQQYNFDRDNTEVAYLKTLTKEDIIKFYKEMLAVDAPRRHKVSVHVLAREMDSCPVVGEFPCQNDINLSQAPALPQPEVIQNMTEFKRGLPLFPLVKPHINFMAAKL

[5] = molecular target: Neuropeptide Y receptor type 1 (Homo sapiens, UniProt P25929); type: functional;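 also: HEK293 cells with a CNG channel challenged with NPY then isoproterenol; potency as antagonist that reverses NPY suppression of cAMP signal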
[6] = molecular target: Neuropeptide Y receptor type 2 (Homo sapiens, UniProt P49146); type: functional, cell-based;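 also: HEK293 cells expressing the receptor and a CNG channel; stimulus was NPY near EC95 followed by isoproterenol to raise cAMP; antagonist potency measured as restoring cAMP signal that NPY suppresses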
[7] = molecular target: T3, Protein skinhead-1 (Caenorhabditis elegans, UniProt P34707); type: functional
T3 sequence (P34707 whole entry): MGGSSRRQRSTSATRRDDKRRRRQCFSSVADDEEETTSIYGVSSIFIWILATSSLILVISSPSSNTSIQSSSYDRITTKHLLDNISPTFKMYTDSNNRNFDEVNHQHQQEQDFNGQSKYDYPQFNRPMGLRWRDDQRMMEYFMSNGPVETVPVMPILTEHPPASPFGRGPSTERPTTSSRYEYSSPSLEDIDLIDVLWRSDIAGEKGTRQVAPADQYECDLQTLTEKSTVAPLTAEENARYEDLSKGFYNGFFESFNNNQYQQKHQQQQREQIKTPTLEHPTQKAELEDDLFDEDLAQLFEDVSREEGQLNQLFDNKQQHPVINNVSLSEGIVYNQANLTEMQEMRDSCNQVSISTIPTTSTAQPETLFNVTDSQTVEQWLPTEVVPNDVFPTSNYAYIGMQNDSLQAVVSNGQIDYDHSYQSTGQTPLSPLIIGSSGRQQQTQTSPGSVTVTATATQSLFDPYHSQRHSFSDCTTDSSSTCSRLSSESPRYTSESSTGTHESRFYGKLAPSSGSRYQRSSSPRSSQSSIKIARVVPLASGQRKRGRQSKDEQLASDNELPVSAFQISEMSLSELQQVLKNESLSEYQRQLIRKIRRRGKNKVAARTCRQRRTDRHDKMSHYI

[8] = molecular target: T4, Dual specificity protein phosphatase 6 (Rattus norvegicus, UniProt Q64346)
T4 sequence (Q64346 whole entry): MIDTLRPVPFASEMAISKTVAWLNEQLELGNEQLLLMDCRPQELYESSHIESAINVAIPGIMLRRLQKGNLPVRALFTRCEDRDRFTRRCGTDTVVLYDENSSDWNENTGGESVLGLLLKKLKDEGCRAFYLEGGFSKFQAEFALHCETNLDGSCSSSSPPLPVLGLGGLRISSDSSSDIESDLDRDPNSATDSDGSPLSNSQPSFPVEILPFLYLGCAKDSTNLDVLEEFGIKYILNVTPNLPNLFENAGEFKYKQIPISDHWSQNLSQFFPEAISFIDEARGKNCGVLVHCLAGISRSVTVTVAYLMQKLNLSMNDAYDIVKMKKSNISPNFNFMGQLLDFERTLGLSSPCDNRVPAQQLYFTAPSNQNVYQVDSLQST

[9] = molecular target: T5, Tyrosine-protein phosphatase non-receptor type 7 (Homo sapiens, UniProt P35236); type: functional
T5 sequence (P35236 whole entry): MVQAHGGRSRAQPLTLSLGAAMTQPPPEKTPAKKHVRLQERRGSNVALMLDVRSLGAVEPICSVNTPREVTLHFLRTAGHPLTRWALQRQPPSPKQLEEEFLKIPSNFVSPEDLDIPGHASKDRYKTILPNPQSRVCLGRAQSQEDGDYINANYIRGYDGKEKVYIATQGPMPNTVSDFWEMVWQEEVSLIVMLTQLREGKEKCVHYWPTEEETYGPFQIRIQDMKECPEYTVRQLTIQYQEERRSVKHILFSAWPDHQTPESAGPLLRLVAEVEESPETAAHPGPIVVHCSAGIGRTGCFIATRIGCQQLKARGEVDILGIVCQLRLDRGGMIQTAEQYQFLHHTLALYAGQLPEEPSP

[10] = molecular target: Heat shock 70 kDa protein 1A (Homo sapiens, UniProt P0DMV8); assay: inhibition of Hsp70 binding activity – biochemical, fluorescence polarization, SAR follow-up (AID 1072)
[11] = molecular target: Glyceraldehyde-3-phosphate dehydrogenase (Homo sapiens, UniProt P04406)
[12] = molecular target: Heat shock cognate 71 kDa protein (Homo sapiens, UniProt P11142); assay: In Vitro Hsc70 Dose Response Fluorescence Polarization Assay. [Related pubchem assays: 1072 ]
[13] = molecular target: T4, Dual specificity protein phosphatase 6; type: functional
[14] = molecular target: T6, Alkaline phosphatase, tissue-nonspecific isozyme (Homo sapiens, UniProt P05186)
T6 sequence (P05186 whole entry): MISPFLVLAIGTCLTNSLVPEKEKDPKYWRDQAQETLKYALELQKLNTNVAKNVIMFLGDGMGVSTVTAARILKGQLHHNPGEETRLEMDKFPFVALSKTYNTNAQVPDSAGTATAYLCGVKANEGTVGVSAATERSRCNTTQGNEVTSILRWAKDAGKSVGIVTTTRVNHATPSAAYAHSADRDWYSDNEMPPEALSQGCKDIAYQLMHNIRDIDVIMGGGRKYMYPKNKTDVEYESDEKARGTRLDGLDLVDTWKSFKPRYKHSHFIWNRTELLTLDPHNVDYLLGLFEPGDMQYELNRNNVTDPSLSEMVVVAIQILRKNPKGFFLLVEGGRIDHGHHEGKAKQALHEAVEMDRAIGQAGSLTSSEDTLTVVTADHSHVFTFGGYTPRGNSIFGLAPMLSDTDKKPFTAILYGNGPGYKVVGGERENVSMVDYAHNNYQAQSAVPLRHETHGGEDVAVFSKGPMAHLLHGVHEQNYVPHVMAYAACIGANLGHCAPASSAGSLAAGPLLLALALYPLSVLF

[15] = NIH3T3 cell viability loss – ATP luminescence, mouse fibroblasts, counter-screen, dose response (AID 2010); type: functional, cell-based;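 also: cells exposed to compound for about 90 hours before reading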
[16] = Trypanosoma cruzi growth suppression in host cells – NIH3T3 host cells, beta-gal luminescence, confirmation (AID 2044); type: functional, cell-based;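 also: intracellular parasites grown in NIH/3T3 mouse fibroblasts as host cells; luminescent beta-galactosidase reporter signal from transgenic T. cruzi replicating inside host cells; inhibitors lower the luminescence signal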

Chain of Glyceraldehyde-3-phosphate dehydrogenase (P04406 whole entry): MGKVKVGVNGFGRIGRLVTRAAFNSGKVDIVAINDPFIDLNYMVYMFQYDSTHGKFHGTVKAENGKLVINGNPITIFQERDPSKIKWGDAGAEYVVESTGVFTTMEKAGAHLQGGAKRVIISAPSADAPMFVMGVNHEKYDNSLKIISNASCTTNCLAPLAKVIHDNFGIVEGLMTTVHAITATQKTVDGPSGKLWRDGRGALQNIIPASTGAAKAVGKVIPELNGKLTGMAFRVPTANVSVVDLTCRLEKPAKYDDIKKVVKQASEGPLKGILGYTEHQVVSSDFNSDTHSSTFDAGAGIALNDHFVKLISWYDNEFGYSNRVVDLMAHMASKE
Chain of Neuropeptide Y receptor type 2 (P49146 whole entry): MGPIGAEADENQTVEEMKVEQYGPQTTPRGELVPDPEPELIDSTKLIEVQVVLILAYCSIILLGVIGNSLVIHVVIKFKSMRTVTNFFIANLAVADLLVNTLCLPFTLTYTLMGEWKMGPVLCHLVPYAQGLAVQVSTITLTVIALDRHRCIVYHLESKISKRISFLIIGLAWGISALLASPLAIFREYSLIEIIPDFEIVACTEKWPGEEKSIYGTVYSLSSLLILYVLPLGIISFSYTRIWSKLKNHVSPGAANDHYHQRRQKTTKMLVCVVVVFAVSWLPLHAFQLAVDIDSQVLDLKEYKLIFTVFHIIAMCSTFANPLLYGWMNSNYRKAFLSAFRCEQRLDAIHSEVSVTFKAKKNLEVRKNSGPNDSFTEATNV
Chain of Neuropeptide Y receptor type 1 (P25929 whole entry): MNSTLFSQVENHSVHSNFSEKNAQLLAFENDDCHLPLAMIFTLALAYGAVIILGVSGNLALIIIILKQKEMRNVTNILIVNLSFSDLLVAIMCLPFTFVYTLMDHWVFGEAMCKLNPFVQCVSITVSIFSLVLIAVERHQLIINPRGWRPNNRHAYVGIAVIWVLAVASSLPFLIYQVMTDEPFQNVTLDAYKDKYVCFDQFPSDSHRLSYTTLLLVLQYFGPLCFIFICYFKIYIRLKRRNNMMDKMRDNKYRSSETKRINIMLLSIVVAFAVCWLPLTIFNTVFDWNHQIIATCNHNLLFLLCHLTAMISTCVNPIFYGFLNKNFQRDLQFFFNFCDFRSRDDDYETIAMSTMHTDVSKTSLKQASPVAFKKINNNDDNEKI
Chain of Heat shock 70 kDa protein 1A (P0DMV8 whole entry): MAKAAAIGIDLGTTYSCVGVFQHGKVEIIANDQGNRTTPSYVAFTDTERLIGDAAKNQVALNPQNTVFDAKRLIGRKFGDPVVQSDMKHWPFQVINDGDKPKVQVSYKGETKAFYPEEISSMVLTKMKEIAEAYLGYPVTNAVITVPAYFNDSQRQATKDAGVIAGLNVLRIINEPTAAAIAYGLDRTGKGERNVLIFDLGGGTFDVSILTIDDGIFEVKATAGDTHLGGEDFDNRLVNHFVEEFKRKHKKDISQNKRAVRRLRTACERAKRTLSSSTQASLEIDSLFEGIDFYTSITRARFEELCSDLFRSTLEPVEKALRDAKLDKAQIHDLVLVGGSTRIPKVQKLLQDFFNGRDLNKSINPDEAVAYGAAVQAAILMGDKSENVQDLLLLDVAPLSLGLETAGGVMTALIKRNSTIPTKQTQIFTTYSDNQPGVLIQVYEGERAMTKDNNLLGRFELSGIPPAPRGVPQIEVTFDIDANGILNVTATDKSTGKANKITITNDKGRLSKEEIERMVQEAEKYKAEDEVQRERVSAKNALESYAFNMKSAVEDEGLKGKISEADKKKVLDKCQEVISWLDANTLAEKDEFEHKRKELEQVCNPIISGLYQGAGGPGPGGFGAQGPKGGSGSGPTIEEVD
Chain of Heat shock cognate 71 kDa protein (P11142 whole entry): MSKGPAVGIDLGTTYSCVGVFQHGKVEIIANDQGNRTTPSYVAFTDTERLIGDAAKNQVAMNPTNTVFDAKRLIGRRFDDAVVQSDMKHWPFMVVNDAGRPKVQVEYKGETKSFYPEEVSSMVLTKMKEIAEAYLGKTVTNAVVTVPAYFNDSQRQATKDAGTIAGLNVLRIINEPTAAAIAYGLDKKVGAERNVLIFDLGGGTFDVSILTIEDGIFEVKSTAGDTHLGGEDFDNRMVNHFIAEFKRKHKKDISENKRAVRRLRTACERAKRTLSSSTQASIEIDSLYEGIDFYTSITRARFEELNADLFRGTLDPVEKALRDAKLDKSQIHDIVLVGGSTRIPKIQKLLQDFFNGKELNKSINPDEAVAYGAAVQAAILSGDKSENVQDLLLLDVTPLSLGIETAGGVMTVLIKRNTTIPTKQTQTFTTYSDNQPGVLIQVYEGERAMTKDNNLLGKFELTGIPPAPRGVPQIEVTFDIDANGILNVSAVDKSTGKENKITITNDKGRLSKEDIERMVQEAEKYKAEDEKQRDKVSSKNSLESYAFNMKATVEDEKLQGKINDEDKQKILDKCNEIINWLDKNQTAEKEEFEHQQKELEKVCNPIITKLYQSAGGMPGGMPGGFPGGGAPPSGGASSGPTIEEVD

Structure (SMILES): CCN(CC)C(=O)Cn1cc(C(=O)C(=O)N2CC=C(c3ccccc3)CC2)c2ccccc21
IC50 [1]: 20.4 µM (inactive)
IC50 [2]: 7.95 µM (active)
IC50 [3]: 24.4 µM (not active)
IC50 [4]: 35.1 µM (not active)

IC50 [5]: 12.8 µM (not active)
IC50 [6]: 17.3 µM (not active)
IC50 [7]: > 100 µM (inactive)
Structure (SMILES): c1ccc(-c2nc(CSc3nnc(-c4cccs4)o3)cs2)cc1

IC50 [8]: 14.1 µM (active)
IC50 [9]: 3.3 µM (active)
IC50 [10]: 35.1 µM (active)
IC50 [11]: > 100 µM (not active)
IC50 [12]: 112 µM (active)
IC50 [13]: 6.01 µM (active)
Structure (SMILES): CCOC(=O)c1ccccc1OC(=O)c1ccc2c(c1)C1C=CCC1C(C(=O)O)N2 (stereo unspecified)

Structure (SMILES): CCOC(=O)c1c(NC(=O)N/N=C/c2ccccc2OCC)sc(C(C)=O)c1C
EC50 [14]: > 100 µM (not active)
EC50 [15]: > 60 µM (not active)
EC50 [16]: 2.88 µM (active)
